Test [1] has as its target T1, aquaporin-3 (AQP3) (Homo sapiens, UniProt Q92482).
T1 sequence (Q92482 1-292): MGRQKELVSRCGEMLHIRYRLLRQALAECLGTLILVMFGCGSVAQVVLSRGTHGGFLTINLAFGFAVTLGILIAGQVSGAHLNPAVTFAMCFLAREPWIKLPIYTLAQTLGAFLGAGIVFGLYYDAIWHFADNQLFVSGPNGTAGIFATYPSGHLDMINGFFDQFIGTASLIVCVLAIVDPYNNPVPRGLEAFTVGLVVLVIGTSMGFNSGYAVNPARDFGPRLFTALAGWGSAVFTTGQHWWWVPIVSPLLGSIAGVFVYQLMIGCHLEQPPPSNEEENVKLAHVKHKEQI
The test is described as follows: stopped-flow glycerol permeability in hRBCs. In kind it is cell-based. Also noted: native AQP3 in human red blood cells. The settings on record: red blood cells.

Test [2] concerns the target T1, aquaporin-3 (AQP3). The test is described as follows: stopped-flow glycerol permeability in hRBCs; confirmed in yeast expressing human AQP3. The class given is cell-based. Also noted: native AQP3 in human red blood cells (IC50). The following applies: red blood cells.

Usually IC50 stands for the midpoint of a concentration-inhibition curve. Lower therefore signals higher potency. For P2W12, the IC50 at aquaporin-3 (AQP3) [1] was determined as 2.78 ± 0.09 µM.

Regarding P2W18, the IC50 against aquaporin-3 (AQP3) [2] was determined as 0.8 ± 0.04 µM.

For the substance P5W30, inhibition against aquaporin-3 (AQP3) [1] was half-maximal at 3.24 ± 0.03 µM (IC50).

The record behind these values is article PMC7177757, “The Aquaporin-3-Inhibiting Potential of Polyoxotungstates” (International Journal of Molecular Sciences, 2020).
